In PubChem BioAssay AID1963864 (Molecular Pharmacology Branch, DTP, NCI, 2024):

System: KRAS PDC multicell spheroid viability
Experiment: Anticancer human tumor 521955-158-R6-J3-PDC patient-derived pancreatic carcinoma cell line growth inhibition [KRAS2]
Conditions: for IC50: curve of first compound; for viability, T/C: stronger effect = lower value
Description: Multicellular complex tumor spheroid response to RAS pathway inhibitors in combination with a targeted agents in patient-derived cell lines with oncogenic KRAS variants from multiple cancer types
A high-throughput screen of multi-cell type tumor spheroids was designed to identify active combinations of targeted small molecules and KRAS pathway inhibitors. Complex spheroids include a stromal component modeled by human endothelial cells (HUVEC) and fibroblasts modeled by human mesenchymal stem cells (MSCs). The concentration ranges selected for each drug and investigational agent were based upon clinically achievable concentrations if the clinical Cmax of the agent was known.
Compounds. The drugs and investigational agents: BI-3406 (NSC825286), BAY-293 (NSC824723), batoprotafib (TNO155; NSC825523), sotorasib (AMG 510; NSC818433), MRTX1257 (NSC819558), elimusertib (BAY 1895344; NSC800525), molibresib (GSK525762; NSC774829), temuterkib (LY3214996; NSC803410), venetoclax (NSC766270), alisertib (NSC759677), olaparib (NSC753686), talazoparib (NSC767125), erdafitinib (NSC781556), ipatasertib (NSC767898), cabozantinib (NSC761068), nintedanib (NSC756659), abemaciclib (NSC768073), docetaxel (NSC628503), trametinib (NSC758246), and sapanisertib (NSC764658) were obtained from the National Cancer Institute (NCI) Developmental Therapeutics Program Chemical Repository. The FDA-approved anticancer drug set is available from the Developmental Therapeutics Program. […] The stock solutions were prepared in dimethyl sulfoxide (DMSO, Sigma-Aldrich, St. Louis, MO, cat. D2650) at 800-fold the tested concentration and stored at -70 degrees C prior to their use. All drugs and investigational agents were tested over a range starting from a high concentration at or near the clinical Cmax and decreasing in half-log increments. If the clinical Cmax for an agent had not been determined, the highest concentration tested was 10 microM.
Cell Culture. All cells were maintained in an incubator at 37 degrees C and 5% CO2 with 95% humidity. The PDC lines were cultured according to standard operating procedures established by the NCI PDMR (https://pdmr.cancer.gov/sops/default.htm). Briefly, all PDCs were thawed and cultured in Matrigel-coated flasks prepared with a working solution of 1X Ham's F-12 nutrient mix, without supplementation (Invitrogen, Waltham, MA, cat. 11765054), 100 U/mL penicillin-streptomycin (Invitrogen, cat. 15140122), and 2.5% Matrigel (Corning Inc., Corning, NY, cat. 354248) for the first three passages. All PDCs were cultured in complete DMEM/F-12 media containing advanced DMEM/F-12 (Invitrogen, cat. 12634028), 4.9% defined fetal bovine serum, heat inactivated (HyClone Laboratories Inc., Logan, UT, cat. SH30070.03HI), 389 ng/mL hydrocortisone (Sigma-Aldrich, cat. H4001), 9.7 ng/mL human EGF recombinant protein (Invitrogen, cat. PHG0313), 23.4 microg/mL adenine (Sigma-Aldrich, cat. A2786), 97.3 U/mL penicillin-streptomycin (Invitrogen, cat. 15140122), 1.9 mM L-glutamine (Invitrogen, cat. 25030081), and 9.7 microM Y-27632 dihydrochloride (Tocris Bioscience, Bristol, United Kingdom, cat. 1254). The PDCs were cultured in complete DMEM/F12 media without 9.7 microM Y-27632 dihydrochloride for at least two passages prior to the screen. The established cell line HOP-62 was cultured in RPMI 1640 medium, HEPES (Invitrogen, cat. 22400105) with 10% defined fetal bovine serum (HyClone Laboratories Inc., cat. SH30070.03) and 2 mM L-glutamine (Invitrogen, cat. 25030081). The pooled donor HUVEC were cultured in endothelial cell growth medium 2 (PromoCell, Heidelberg, Germany, cat. C-22011) and the hMSC were cultured in mesenchymal stem cell growth medium 2 (PromoCell, cat. C-28009). For all experiments, HUVEC and hMSC were used at passages </=5, while the malignant cell lines were used at passages </=15. […]

[1] = second compound 0.1 µM, first compound 0.01 µM
[2] = second compound 0.1 µM, first compound 0.0316 µM
[3] = second compound 0.1 µM, first compound 0.1 µM
[4] = second compound 0.1 µM, first compound 0.316 µM
[5] = second compound 0.1 µM, first compound 1 µM
[6] = second compound 0.1 µM, first compound 3.16 µM
[7] = second compound 0.316 µM, first compound 0.01 µM
[8] = second compound 0.316 µM, first compound 0.0316 µM
[9] = second compound 0.316 µM, first compound 0.1 µM
[10] = second compound 0.316 µM, first compound 0.316 µM
[11] = second compound 0.316 µM, first compound 1 µM
[12] = second compound 0.316 µM, first compound 3.16 µM
[13] = second compound 1 µM, first compound 0.01 µM
[14] = second compound 1 µM, first compound 0.0316 µM
[15] = second compound 1 µM, first compound 0.1 µM
[16] = second compound 1 µM, first compound 0.316 µM
[17] = second compound 1 µM, first compound 1 µM
[18] = second compound 1 µM, first compound 3.16 µM
[19] = second compound 3.16 µM, first compound 0.01 µM
[20] = second compound 3.16 µM, first compound 0.0316 µM
[21] = second compound 3.16 µM, first compound 0.1 µM
[22] = second compound 3.16 µM, first compound 0.316 µM
[23] = second compound 3.16 µM, first compound 1 µM
[24] = second compound 3.16 µM, first compound 3.16 µM
[25] = second compound 10 µM, first compound 0.01 µM
[26] = second compound 10 µM, first compound 0.0316 µM
[27] = second compound 10 µM, first compound 0.1 µM
[28] = second compound 10 µM, first compound 0.316 µM
[29] = second compound 10 µM, first compound 1 µM
[30] = second compound 10 µM, first compound 3.16 µM
[31] = second compound 0.1 µM, first compound 10 µM
[32] = second compound 0.316 µM, first compound 10 µM
[33] = second compound 1 µM, first compound 10 µM
[34] = second compound 3.16 µM, first compound 10 µM
[35] = second compound 10 µM, first compound 10 µM
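Further: drug exposure lasted seven days.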
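Wherever viability, T/C is given: 100% = DMSO vehicle wells and lower means fewer viable cells.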

| SMILES | IC50 (second compound 0.1 µM) | IC50 (second compound 0.316 µM) | IC50 (second compound 1 µM) | IC50 (second compound 3.16 µM) | IC50 (second compound 10 µM) | viability, T/C [2] | viability, T/C [3] | viability, T/C [4] | viability, T/C [5] | viability, T/C [6] | viability, T/C [8] | viability, T/C [9] | viability, T/C [10] | viability, T/C [11] | viability, T/C [14] | viability, T/C [15] | viability, T/C [20] | viability, T/C [21] | viability, T/C [26] | viability, T/C [27] | other results |
| --- | --- | --- | --- | --- | --- | --- | --- | --- | --- | --- | --- | --- | --- | --- | --- | --- | --- | --- | --- | --- | --- |
| CC(=O)OC12COC1CC(O)C1(C)C(=O)C(O)C3=C(C)C(OC(=O)C(O)C(NC(=O)OC(C)(C)C)c4ccccc4)CC(O)(C(OC(=O)c4ccccc4)C21)C3(C)C (stereo not given) + C=CC(=O)N1CCN(c2nc(=O)n(-c3c(C)ccnc3C(C)C)c3nc(-c4c(O)cccc4F)c(F)cc23)C(C)C1 | > 3.16 µM | > 3.16 µM | > 3.16 µM | > 3.16 µM | > 3.16 µM | 74.1% | 77.7% | 94.7% | 94.3% | 114% | 82.5% | 74.4% | 77.1% | 88.4% | 87% | 81.4% | 88.1% | 90.3% | 92.2% | 90.1% | viability, T/C [1]: 86.2%; viability, T/C [7]: 86%; viability, T/C [12]: 113%; viability, T/C [13]: 90.6%; viability, T/C [16]: 62.5%; viability, T/C [17]: 65.6%; viability, T/C [18]: 69%; viability, T/C [19]: 97.3%; viability, T/C [22]: 101%; viability, T/C [23]: 98.4%; viability, T/C [24]: 104%; viability, T/C [25]: 98.9%; viability, T/C [28]: 73.2%; viability, T/C [29]: 86.8%; viability, T/C [30]: 76.8% |
| CN(C)C/C=C/C(=O)Nc1cc2c(Nc3ccc(F)c(Cl)c3)ncnc2cc1O[C@H]1CCOC1 + C=CC(=O)N1CCN(c2nc(=O)n(-c3c(C)ccnc3C(C)C)c3nc(-c4c(O)cccc4F)c(F)cc23)C(C)C1 | > 0.1 µM | > 0.1 µM | > 0.1 µM | > 0.1 µM | > 0.1 µM | 68.6% | 66.6% |  |  |  | 71.2% | 66.3% |  |  | 67.6% | 69.4% | 69.6% | 69.7% | 58.5% | 65.3% | viability, T/C (second compound 0.1 µM, first compound 0.000316 µM): 101%; viability, T/C (second compound 0.1 µM, first compound 0.001 µM): 92.9%; viability, T/C (second compound 0.1 µM, first compound 0.00316 µM): 85.4%; viability, T/C [1]: 72.8%; viability, T/C (second compound 0.316 µM, first compound 0.000316 µM): 119%; viability, T/C (second compound 0.316 µM, first compound 0.001 µM): 112%; viability, T/C (second compound 0.316 µM, first compound 0.00316 µM): 79.9%; viability, T/C [7]: 81.7%; viability, T/C (second compound 1 µM, first compound 0.000316 µM): 113%; viability, T/C (second compound 1 µM, first compound 0.001 µM): 92.2%; viability, T/C (second compound 1 µM, first compound 0.00316 µM): 102%; viability, T/C [13]: 79.8%; viability, T/C (second compound 3.16 µM, first compound 0.000316 µM): 112%; viability, T/C (second compound 3.16 µM, first compound 0.001 µM): 97%; viability, T/C (second compound 3.16 µM, first compound 0.00316 µM): 83.7%; viability, T/C [19]: 79%; viability, T/C (second compound 10 µM, first compound 0.000316 µM): 73.2%; viability, T/C (second compound 10 µM, first compound 0.001 µM): 109%; viability, T/C (second compound 10 µM, first compound 0.00316 µM): 66.7%; viability, T/C [25]: 62.3% |
| COC(=O)c1ccc2c(C(=Nc3ccc(N(C)C(=O)CN4CCN(C)CC4)cc3)c3ccccc3)c(O)[nH]c2c1 + C=CC(=O)N1CCN(c2nc(=O)n(-c3c(C)ccnc3C(C)C)c3nc(-c4c(O)cccc4F)c(F)cc23)C(C)C1 | 4.73 µM | 3.96 µM | 3.14 µM | 3.84 µM | 3.77 µM | 96.2% | 102% | 116% | 119% | 76.8% | 92.8% | 108% | 120% | 128% | 103% | 110% | 108% | 94.6% | 82.5% | 83.3% | viability, T/C [31]: 0.24%; viability, T/C [12]: 61.9%; viability, T/C [32]: 0.9%; viability, T/C [16]: 119%; viability, T/C [17]: 128%; viability, T/C [18]: 49.6%; viability, T/C [33]: 3.61%; viability, T/C [22]: 94.2%; viability, T/C [23]: 123%; viability, T/C [24]: 59.9%; viability, T/C [34]: 1.53%; viability, T/C [28]: 88.9%; viability, T/C [29]: 89%; viability, T/C [30]: 59%; viability, T/C [35]: 0.68% |
| O=C(c1cc(Cc2n[nH]c(=O)c3ccccc23)ccc1F)N1CCN(C(=O)C2CC2)CC1 + C=CC(=O)N1CCN(c2nc(=O)n(-c3c(C)ccnc3C(C)C)c3nc(-c4c(O)cccc4F)c(F)cc23)C(C)C1 | > 10 µM | > 10 µM | > 10 µM | > 10 µM | > 10 µM | 110% | 103% | 113% | 96.1% | 101% | 118% | 118% | 106% | 104% | 118% | 114% | 103% | 105% | 84.4% | 84.7% | viability, T/C [31]: 96.2%; viability, T/C [12]: 93.8%; viability, T/C [32]: 111%; viability, T/C [16]: 110%; viability, T/C [17]: 99.3%; viability, T/C [18]: 99.7%; viability, T/C [33]: 111%; viability, T/C [22]: 95.4%; viability, T/C [23]: 104%; viability, T/C [24]: 98.2%; viability, T/C [34]: 81.5%; viability, T/C [28]: 87.1%; viability, T/C [29]: 84%; viability, T/C [30]: 84.2%; viability, T/C [35]: 83.9% |
